Laboratory results: patent US10351613B2, “Polypeptide for inhibition of tumor” (G-Bio Pharma Tech Co., Ltd., priority 2015, dated 2019)

Tested on: Human lung cancer A549 tumor model
Test: Inhibition on in vivo growth of tumor in combination with DDP, A549 model
Settings: for Tumor inhibitor rate (%): A549, day 21
Description: In vitro cultured tumor cells in exponential phase and in good state were formulated to a 100 μl cell suspension containing 5×10^6 tumor cells. The suspension was subcutaneously inoculated to nude mice. Well-grown solid tumors were obtained 15 days later and cut into uniform pieces of about 3 mm under sterile condition. Each nude mouse was inoculated by one piece through a trocar. Mice were re-grouped according the tumor size 10-14 days after inoculation and animals having too large and too small tumor were excluded from the test. […] Test drugs were administered to each group according to the experimental protocol. The major axis (a) and minor axis (b) of the tumor were measured twice a week. Animals were sacrificed at the end of the test. The tumor was taken out, weighed and photos were taken. Tumor volume (TV)=½×a×b^2; Relative tumor volume (RTV)=Vt/Vo, wherein Vo is the tumor volume measured before grouping (one day before administration of the test drug), and Vt is the tumor volume measured at each time. Tumor inhibition rate (%)=(1−T/C)×100%, wherein T is the average tumor volume of the treatment group and C is the average tumor volume of the negative control group.
The amino acid sequence of recombination endostatin (“endostatin”) was set forth in SEQ ID NO: 1, and the amino acid sequence of the marketed drug Endostar (“endostar”) was set forth in SEQ ID NO: 10. Human lung cancer A549 tumor model was constructed according to the method described in Example 10. The test contained 7 groups, with 6 animals in each group. The molar dose of the polypeptides was basically equal to the molar dose of endostatin.

In the case of `N.N.[Cl][Pt][Cl]` [DDP, Cisplatin], the “Tumor inhibitor rate (%)” value (DDP 2 mg/kg/day ip 7 days alone or with polypeptide 15 mg/kg or endostatin/endostar 50 mg/kg sc 2 times per day 21 days) is reported as 24.8%, the “Tumor inhibitor rate (%)” value (DDP 6 mg/kg/day ip 7 days (high dose)) is reported as 81.9% and the “animals with residual tumor” value (of 6 animals, combination with DDP 2 mg/kg, DDP alone 6 mg/kg) is reported as 6.
